IC50 data for 34 molecules are collected here from patent US7211572B2 (Japan Tobacco Inc., priority 2003, dated 2007).

The IC50 is the midpoint of a concentration-inhibition curve.

Structures can show the parent of a compound that is named as a salt. A value given as a limit tells only on which side of the number the result lay.

In this experiment the target is T1, HIV integrase (Human immunodeficiency virus type 1 group M subtype B, UniProt P12497, F1332H).
T1 construct: HIV integrase full length gene; made in house; host or cells: Escherichia coli BL21(DE3), plasmid pET21a-INH
In words: Determination of enzyme (HIV integrase) inhibitory activity. It counts as biochemical. Conditions: recombinant HIV integrase (F185H), strand transfer ELISA, absorbance at 450 nm. A digest of the protocol: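 Full-length integrase with F185H, expressed in E. coli and purified, was reacted for 60 min at 37 °C with compound and biotinylated donor DNA bound to streptavidin plates. Target DNA was added for 10 min, then anti-digoxigenin-peroxidase detection at A450; IC50 from % inhibition versus enzyme-free blank.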
(In an ELISA, binding on a coated surface is turned into a signal by an enzyme label.)

As for `CCN(CC)C(=O)c1cc(=O)c(O)c2n1CCN(Cc1ccc(Cl)c(Cl)c1)C2=O` [Example 61, N,N-diethyl-2-(3,4-dichlorobenzyl)-9-hydroxy-1,8-dioxo-1,3,4,8-tetrahydro-2H-pyrido[1,2-a]pyrazine-6-carboxamide], the IC50 was 10 to 100 nM.

For `CN(C)C(=O)c1cn2ccn(Cc3ccc(F)c(Cl)c3)c(=O)c2c(O)c1=O` [Example 208, N,N-dimethyl-2-(3-chloro-4-fluorobenzyl)-9-hydroxy-1,8-dioxo-1,8-dihydro-2H-pyrido[1,2-a]pyrazine-7-carboxamide], the IC50 is less than 10 nM.

Turning to `CC(=O)N(CC(C)C)c1cn2ccn(Cc3cccc(Cl)c3)c(=O)c2c(O)c1=O` [Example 302, N-[2-(3-chlorobenzyl)-9-hydroxy-1,8-dioxo-1,8-dihydro-2H-pyrido[1,2-a]pyrazin-7-yl]-N-isobutylacetamide], the IC50 lay in the range of 10 to 100 nM.

Consider `O=C(NCc1ccccc1F)c1cn2c(c(O)c1=O)C(=O)N(Cc1ccc(F)cc1)CC2` [Example 377, N-(2-fluorobenzyl)-2-(4-fluorobenzyl)-9-hydroxy-1,8-dioxo-1,3,4,8-tetrahydro-2H-pyrido[1,2-a]pyrazine-7-carboxamide], for which the IC50 was less than 10 nM.

Regarding `CCCCC1CN(Cc2ccc(Cl)c(Cl)c2)C(=O)c2c(O)c(=O)ccn21` (stereo not shown) [Example 16, 4-butyl-2-(3,4-dichlorobenzyl)-9-hydroxy-3,4-dihydro-2H-pyrido[1,2-a]pyrazine-1,8-dione], the IC50 fell in the range of 10 to 100 nM.

For `O=c1c(-c2ccncn2)cn2ccn(Cc3cccc(F)c3)c(=O)c2c1O` [Example 403, 2-(3-fluorobenzyl)-9-hydroxy-7-(pyrimidin-4-yl)-2H-pyrido[1,2-a]pyrazine-1,8-dione hydrochloride], the IC50 fell in the range of 10 to 100 nM.

For `CC(C)OC(=O)c1cn2ccn(Cc3cccc(Cl)c3)c(=O)c2c(O)c1=O` [Example 150, isopropyl 2-(3-chlorobenzyl)-9-hydroxy-1,8-dioxo-1,8-dihydro-2H-pyrido[1,2-a]pyrazine-7-carboxylate], the IC50 lay in the range of 10 to 100 nM.

Regarding `O=C1c2c(O)c(=O)c(-c3nccs3)cn2CCN1CCCc1ccccc1Cl` [Example 298, 2-[3-(2-chlorophenyl)propyl]-9-hydroxy-7-(thiazol-2-yl)-3,4-dihydro-2H-pyrido[1,2-a]pyrazine-1,8-dione hydrochloride], the IC50 is less than 10 nM.

In the case of `Cc1cn(Cc2cccc(F)c2)c(=O)c2c(O)c(=O)c(-c3ccccn3)cn12` [Example 407, 2-(3-fluorobenzyl)-9-hydroxy-4-methyl-7-(pyridin-2-yl)-2H-pyrido[1,2-a]pyrazine-1,8-dione hydrochloride], the IC50 is 10 to 100 nM.

For `O=c1c(-c2cc3ccccc3o2)cn2ccn(Cc3cccc(Cl)c3)c(=O)c2c1O` [Example 124, 7-(benzofuran-2-yl)-2-(3-chlorobenzyl)-9-hydroxy-2H-pyrido[1,2-a]pyrazine-1,8-dione hydrochloride], the IC50 was 10 to 100 nM.

Turning to `CNC(=O)c1cn2ccn(Cc3ccc(F)cc3)c(=O)c2c(O)c1=O` [Example 253, N-methyl-2-(4-fluorobenzyl)-9-hydroxy-1,8-dioxo-1,8-dihydro-2H-pyrido[1,2-a]pyrazine-7-carboxamide], the IC50 is less than 10 nM.

`O=C(Nc1cn2ccn(Cc3cccc(Cl)c3)c(=O)c2c(O)c1=O)c1ccco1` [Example 288, N-[2-(3-chlorobenzyl)-9-hydroxy-1,8-dioxo-1,8-dihydro-2H-pyrido[1,2-a]pyrazin-7-yl]furan-2-carboxamide]: the IC50 is less than 10 nM.

Take `CC(C)(C)C(=O)c1cn2c(c(O)c1=O)C(=O)N(Cc1cccc(Cl)c1)CC2` [Example 223, 2-(3-chlorobenzyl)-7-(2,2-dimethylpropionyl)-9-hydroxy-3,4-dihydro-2H-pyrido[1,2-a]pyrazine-1,8-dione hydrochloride]: the IC50 lay within 10 to 100 nM.

For `O=Cc1cn(Cc2cccc(Cl)c2)c(=O)c2c(O)c(=O)ccn12` [Example 101, 2-(3-chlorobenzyl)-9-hydroxy-1,8-dioxo-1,8-dihydro-2H-pyrido[1,2-a]pyrazine-4-carbaldehyde], the IC50 is 10 to 100 nM.

`O=c1c(-c2ncccn2)cn2ccn(Cc3cccc(Cl)c3)c(=O)c2c1O` [Example 170, 2-(3-chlorobenzyl)-9-hydroxy-7-(pyrimidin-2-yl)-2H-pyrido[1,2-a]pyrazine-1,8-dione hydrochloride]: the IC50 was in the range of 10 to 100 nM.

As for `CC(C)C(O)c1cc(=O)c(O)c2n1CCN(Cc1ccc(Cl)c(Cl)c1)C2=O` (stereo not shown) [Example 53, 2-(3,4-dichlorobenzyl)-9-hydroxy-6-(1-hydroxy-2-methylpropyl)-3,4-dihydro-2H-pyrido[1,2-a]pyrazine-1,8-dione], the IC50 is 10 to 100 nM.

`O=C(Nc1cn2ccn(Cc3ccc(F)cc3)c(=O)c2c(O)c1=O)c1cccnc1` [Example 320, N-[2-(4-fluorobenzyl)-9-hydroxy-1,8-dioxo-1,8-dihydro-2H-pyrido[1,2-a]pyrazin-7-yl]nicotinamide trifluoroacetate]: the IC50 was less than 10 nM.

With `O=c1c(-c2ccccn2)cn2ccn(Cc3cccc(F)c3)c(=O)c2c1O` [Example 365, 2-(3-fluorobenzyl)-9-hydroxy-7-(pyridin-2-yl)-2H-pyrido[1,2-a]pyrazine-1,8-dione hydrochloride], the IC50 lay in the range of 10 to 100 nM.

As to `O=c1ccn2ccn(Cc3cccc(Cl)c3)c(=O)c2c1O` [Example 88, 2-(3-chlorobenzyl)-9-hydroxy-2H-pyrido[1,2-a]pyrazine-1,8-dione hydrochloride], the IC50 fell in the range of 10 to 100 nM.

With `COCC(C)(C)C(=O)c1cn2c(c(O)c1=O)C(=O)N(Cc1ccc(F)cc1)CC2` [Example 389, 2-(4-fluorobenzyl)-9-hydroxy-7-(3-methoxy-2,2-dimethylpropionyl)-3,4-dihydro-2H-pyrido[1,2-a]pyrazine-1,8-dione], the IC50 lay in the range of 10 to 100 nM.

As to `O=c1c(-c2ccccn2)cn2ccn(Cc3ccc(F)cc3)c(=O)c2c1O` [Example 306, 2-(4-fluorobenzyl)-9-hydroxy-7-(pyridin-2-yl)-2H-pyrido[1,2-a]pyrazine-1,8-dione trifluoroacetate], the IC50 was in the range of 10 to 100 nM.

`CC(C)(C)c1cc(=O)c(O)c2n1CCN(Cc1ccc(Cl)c(Cl)c1)C2=O` [Example 67, 6-tert-butyl-2-(3,4-dichlorobenzyl)-9-hydroxy-3,4-dihydro-2H-pyrido[1,2-a]pyrazine-1,8-dione]: the half-inhibitory concentration (IC50) lay in the range of 10 to 100 nM.

For `Cc1cnc(-c2cn3c(c(O)c2=O)C(=O)N(Cc2cccc(Cl)c2)CC3)s1` [Example 248, 2-(3-chlorobenzyl)-9-hydroxy-7-(5-methylthiazol-2-yl)-3,4-dihydro-2H-pyrido[1,2-a]pyrazine-1,8-dione], the IC50 is less than 10 nM.

`O=c1c(-c2cnccn2)cn2ccn(Cc3cccc(Cl)c3)c(=O)c2c1O` [Example 231, 2-(3-chlorobenzyl)-9-hydroxy-7-(pyrazin-2-yl)-2H-pyrido [1,2-a]pyrazine-1,8-dione hydrochloride]: the IC50 was less than 10 nM.

For the molecule `CNC(=O)c1cc(F)ccc1CCCN1CCn2cc(-c3nccs3)c(=O)c(O)c2C1=O` [Example 335, 5-fluoro-2-{3-[9-hydroxy-1,8-dioxo-7-(thiazol-2-yl)-1,3,4,8-tetrahydro-pyrido[1,2-a]pyrazin-2-yl]propyl)-N-methylbenzamide], the IC50 is 10 to 100 nM.

With `CC(C)(C(=O)Nc1cn2ccn(Cc3cccc(Cl)c3)c(=O)c2c(O)c1=O)c1ccccc1` [Example 277, N-[2-(3-chlorobenzyl)-9-hydroxy-1,8-dioxo-1,8-dihydro-2H-pyrido[1,2-a]pyrazin-7-yl]-2-phenylisobutyramide], the IC50 was less than 10 nM.

Take `CC(C)C1CN(Cc2ccc(Cl)c(Cl)c2)C(=O)c2c(O)c(=O)ccn21` (stereo not shown) [Example 17, 2-(3,4-dichlorobenzyl)-9-hydroxy-4-isopropyl-3,4-dihydro-2H-pyrido[1,2-a]pyrazine-1,8-dione]: the IC50 lay in the range of 10 to 100 nM.

Regarding `O=C(c1ccccc1)c1cn2ccn(Cc3cccc(Cl)c3)c(=O)c2c(O)c1=O` [Example 137, 7-benzoyl-2-(3-chlorobenzyl)-9-hydroxy-2H-pyrido[1,2-a]pyrazine-1,8-dione hydrochloride], the IC50 lay in the range of 10 to 100 nM.

Regarding `CC(C)c1cn(Cc2cccc(Cl)c2)c(=O)c2c(O)c(=O)ccn12` [Example 10, 2-(3-chlorobenzyl)-9-hydroxy-4-isopropyl-2H-pyrido[1,2-a]pyrazine-1,8-dione hydrochloride], the IC50 was 10 to 100 nM.

Consider `O=c1ccn2ccn(Cc3ccc(Br)cc3)c(=O)c2c1O` [Example 157, 2-(4-bromobenzyl)-9-hydroxy-2H-pyrido[1,2-a]pyrazine-1,8-dione hydrochloride], for which the IC50 was 10 to 100 nM.

As for `O=C(O)c1cc(F)ccc1CN1CCn2cc(-c3nccs3)c(=O)c(O)c2C1=O` [Example 368, 5-fluoro-2-[9-hydroxy-1,8-dioxo-7-(thiazol-2-yl)-1,3,4,8-tetrahydro-pyrido[1,2-a]pyrazin-2-ylmethyl]benzoic acid hydrochloride], the IC50 lay in the range of 10 to 100 nM.

Turning to `CCNC(=O)c1cn2ccn(Cc3ccc(F)cc3)c(=O)c2c(O)c1=O` [Example 323, N-ethyl-2-(4-fluorobenzyl)-9-hydroxy-1,8-dioxo-1,8-dihydro-2H-pyrido[1,2-a]pyrazine-7-carboxamide], the IC50 was in the range of 10 to 100 nM.

Turning to `CC(C)c1cn(Cc2cccc(Cl)c2)c(=O)c2c(O)c(=O)c(Br)cn12` [Example 129, 7-bromo-2-(3-chlorobenzyl)-9-hydroxy-4-isopropyl-2H-pyrido[1,2-a]pyrazine-1,8-dione hydrochloride], the IC50 fell in the range of 10 to 100 nM.

For the molecule `Cn1ncnc1-c1cn2ccn(Cc3cccc(Cl)c3)c(=O)c2c(O)c1=O` [Example 232, 2-(3-chlorobenzyl)-9-hydroxy-7-(2-methyl-2H-1,2,4-triazol-3-yl)-2H-pyrido[1,2-a]pyrazine-1,8-dione hydrochloride], the IC50 is less than 10 nM.
